Laboratory results published in US20230085307A1, “PYRIDAZINONE COMPOUND AND HERBICIDE” (NISSAN CHEMICAL CORPORATION, priority 2019, published 2023).

How the values were obtained:
windgrass [1] = assay: Test Example 4: herbicidal effect by soil treatment (Table 19, symbol L); type: in vivo, windgrass (Apera spica-venti); conditions: amount of applied herbicide 320 g/ha
Source text: (§1) [Test Example 4] Herbicidal Effect Test by Soil Treatment
(§2) Sterilized diluvial soil was placed in a plastic box having a length of 21 cm, a width of 13 cm, and a depth of 7 cm. The seeds of each of southern crabgrass, green foxtail, barnyard grass, wild oat, blackgrass, Italian ryegrass, windgrass, velvetleaf, redroot pigweed, lambsquarters, chickweed, false cleavers, persian speedwell, corn, soybean, rice, wheat, beet, and rapeseed were sowed in a spot-like manner and covered with the soil having a thickness of about 1.5 cm. Subsequently, the emulsion agent of the compound of the present invention prepared according to Formulation Example 2 was diluted with water so as to achieve a predetermined herbicide amount, and the diluted emulsion agent was uniformly applied to the surface of the soil with a small-sized spray. The plastic box was placed in a greenhouse at 25° C. to 30° C. for growth of the plants. Three weeks after the herbicide application, the effect of the herbicide on each plant was evaluated according to the criteria of Test Example 1.

southern crabgrass [2] = assay: Test Example 4: herbicidal effect by soil treatment (Table 19, symbol F); type: in vivo, southern crabgrass (Digitaria ciliaris); conditions: amount of applied herbicide 320 g/ha
Outline: (§3)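 Scoring uses the grading scale of an earlier test, three weeks post-application. Treatment consists of spraying a diluted emulsion formulation across the surface of sterilized diluvial soil in which seeds are buried near 1.5 cm deep; boxes are kept in a greenhouse between 25° C. and 30° C.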

wild oat [3] = assay: Test Example 4: herbicidal effect by soil treatment (Table 19, symbol I); type: in vivo, wild oat (Avena fatua); conditions: amount of applied herbicide 320 g/ha
Source text: as §1, §2

velvetleaf [4] = assay: Test Example 4: herbicidal effect by soil treatment (Table 19, symbol M); type: in vivo, velvetleaf (Abutilon theophrasti); conditions: amount of applied herbicide 320 g/ha
Outline: as §3

barnyard grass [5] = assay: Test Example 3: herbicidal effect by foliage application, Wagner pot (Table 18, symbol H); type: in vivo, barnyard grass (Echinochloa crus-galli); conditions: 320 g/ha
Outline: (§4)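 Plants were sown in alluvial soil held under 0.1–0.5 cm standing water and grown 14 days in a greenhouse at 25–30 °C. An emulsifiable formulation, water-diluted to the set dose, was then sprayed onto the foliage, and effects were scored three weeks later using previously defined criteria.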

green foxtail [6] = assay: Test Example 5: herbicidal effect by foliage application, plastic box (Table 20, symbol G); type: in vivo, green foxtail (Setaria viridis); conditions: foliage application, 320 g/ha, three weeks after application
Outline: (§5)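 Post-emergence foliar test in sterilized diluvial soil. Compound applied as water-diluted emulsion at a predetermined rate to 14-day-old plants; evaluation at three weeks.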

blackgrass [7] = assay: Test Example 4: herbicidal effect by soil treatment (Table 19, symbol J); type: in vivo, blackgrass (Alopecurus myosuroides); conditions: amount of applied herbicide 320 g/ha
Source text: as §1, §2

southern crabgrass [8] = assay: Test Example 5: herbicidal effect by foliage application, plastic box (Table 20, symbol F); type: in vivo, southern crabgrass (Digitaria ciliaris); conditions: foliage application, 320 g/ha, three weeks after application
Outline: as §5

chickweed [9] = assay: Test Example 4: herbicidal effect by soil treatment (Table 19, symbol P); type: in vivo, common chickweed (Stellaria media); conditions: amount of applied herbicide 320 g/ha
Source text: as §1, §2

Italian ryegrass [10] = assay: Test Example 5: herbicidal effect by foliage application, plastic box (Table 20, symbol K); type: in vivo, Italian ryegrass (Lolium multiflorum); conditions: foliage application, 320 g/ha, three weeks after application
Outline: as §5

velvetleaf [11] = assay: Test Example 5: herbicidal effect by foliage application, plastic box (Table 20, symbol M); type: in vivo, velvetleaf (Abutilon theophrasti); conditions: foliage application, 320 g/ha, three weeks after application
Outline: as §5

lambsquarters [12] = assay: Test Example 4: herbicidal effect by soil treatment (Table 19, symbol O); type: in vivo, lambsquarters (Chenopodium album); conditions: amount of applied herbicide 320 g/ha
Source text: as §1, §2

Chinese sprangletop = assay: Test Example 3: herbicidal effect by foliage application, Wagner pot (Table 18, symbol D); type: in vivo, chinese sprangletop (Leptochloa chinensis); conditions: 320 g/ha
Outline: as §4

Italian ryegrass [13] = assay: Test Example 4: herbicidal effect by soil treatment (Table 19, symbol K); type: in vivo, Italian ryegrass (Lolium multiflorum); conditions: amount of applied herbicide 320 g/ha
Source text: as §1, §2

wild oat [14] = assay: Test Example 5: herbicidal effect by foliage application, plastic box (Table 20, symbol I); type: in vivo, wild oat (Avena fatua); conditions: foliage application, 320 g/ha, three weeks after application
Outline: as §5

windgrass [15] = assay: Test Example 5: herbicidal effect by foliage application, plastic box (Table 20, symbol L); type: in vivo, windgrass (Apera spica-venti); conditions: foliage application, 320 g/ha, three weeks after application
Outline: as §5

blackgrass [16] = assay: Test Example 5: herbicidal effect by foliage application, plastic box (Table 20, symbol J); type: in vivo, blackgrass (Alopecurus myosuroides); conditions: foliage application, 320 g/ha, three weeks after application
Outline: as §5

chickweed [17] = assay: Test Example 5: herbicidal effect by foliage application, plastic box (Table 20, symbol P); type: in vivo, common chickweed (Stellaria media); conditions: foliage application, 320 g/ha, three weeks after application
Outline: as §5

persian speedwell = assay: Test Example 5: herbicidal effect by foliage application, plastic box (Table 20, symbol R); type: in vivo, Persian speedwell (Veronica persica); conditions: foliage application, 320 g/ha, three weeks after application
Outline: as §5

redroot pigweed [18] = assay: Test Example 4: herbicidal effect by soil treatment (Table 19, symbol N); type: in vivo, redroot pigweed (Amaranthus retroflexus); conditions: amount of applied herbicide 320 g/ha
Source text: as §1, §2

barnyard grass [19] = assay: Test Example 4: herbicidal effect by soil treatment (Table 19, symbol H); type: in vivo, barnyard grass (Echinochloa crus-galli); conditions: amount of applied herbicide 320 g/ha
Source text: as §1, §2

barnyard grass [20] = assay: Test Example 5: herbicidal effect by foliage application, plastic box (Table 20, symbol H); type: in vivo, barnyard grass (Echinochloa crus-galli); conditions: foliage application, 320 g/ha, three weeks after application
Outline: as §5

redroot pigweed [21] = assay: Test Example 5: herbicidal effect by foliage application, plastic box (Table 20, symbol N); type: in vivo, redroot pigweed (Amaranthus retroflexus); conditions: foliage application, 320 g/ha, three weeks after application
Outline: as §5

lambsquarters [22] = assay: Test Example 5: herbicidal effect by foliage application, plastic box (Table 20, symbol O); type: in vivo, lambsquarters (Chenopodium album); conditions: foliage application, 320 g/ha, three weeks after application
Outline: as §5

green foxtail [23] = assay: Test Example 4: herbicidal effect by soil treatment (Table 19, symbol G); type: in vivo, green foxtail (Setaria viridis); conditions: amount of applied herbicide 320 g/ha
Outline: as §3

rice flat sedge = assay: Test Example 3: herbicidal effect by foliage application, Wagner pot (Table 18, symbol E); type: in vivo, rice flat sedge (Cyperus iria); conditions: 320 g/ha
Outline: as §4

COc1ccccc1-c1sc2cc(OCCS(C)(=O)=O)ccc2c1-c1c(O)c(C)nn(C)c1=O [3-127] was tested, and the “L: windgrass, herbicidal effect grade” value (windgrass [1]) was 5 (Herbicidal rate of 90% or more (almost completely withered)), the “F: southern crabgrass, herbicidal effect grade” value (southern crabgrass [2]) was 0 (Herbicidal rate of 5% or less (almost no effect)) and the “I: wild oat, herbicidal effect grade” value (wild oat [3]) was 0 (Herbicidal rate of 5% or less (almost no effect)). For the same molecule, the “M: velvetleaf, herbicidal effect grade” value (velvetleaf [4]) was 0 (Herbicidal rate of 5% or less (almost no effect)), the “herbicidal effect on barnyard grass (H)” value (barnyard grass [5]) was 4 (Herbicidal rate of 70% or more and less than 90%) and the “G: green foxtail, herbicidal effect grade” value (green foxtail [6]) was 5 (Herbicidal rate of 90% or more (almost completely withered)). For the same molecule, the “J: blackgrass, herbicidal effect grade” value (blackgrass [7]) was 3 (Herbicidal rate of 40% or more and less than 70%), the “F: southern crabgrass, herbicidal effect grade” value (southern crabgrass [8]) was 5 (Herbicidal rate of 90% or more (almost completely withered)) and the “P: chickweed, herbicidal effect grade” value (chickweed [9]) was 1 (Herbicidal rate of 5% or more and less than 20%). The “K: Italian ryegrass, herbicidal effect grade” value (Italian ryegrass [10]) was 4 (Herbicidal rate of 70% or more and less than 90%), the “M: velvetleaf, herbicidal effect grade” value (velvetleaf [11]) was 5 (Herbicidal rate of 90% or more (almost completely withered)) and the “O: lambsquarters, herbicidal effect grade” value (lambsquarters [12]) was 0 (Herbicidal rate of 5% or less (almost no effect)). The “herbicidal effect on Chinese sprangletop (D)” value (Chinese sprangletop) was 3 (Herbicidal rate of 40% or more and less than 70%), the “K: Italian ryegrass, herbicidal effect grade” value (Italian ryegrass [13]) was 4 (Herbicidal rate of 70% or more and less than 90%) and the “I: wild oat, herbicidal effect grade” value (wild oat [14]) was 4 (Herbicidal rate of 70% or more and less than 90%). The “L: windgrass, herbicidal effect grade” value (windgrass [15]) was 5 (Herbicidal rate of 90% or more (almost completely withered)), the “J: blackgrass, herbicidal effect grade” value (blackgrass [16]) was 5 (Herbicidal rate of 90% or more (almost completely withered)) and the “P: chickweed, herbicidal effect grade” value (chickweed [17]) was 5 (Herbicidal rate of 90% or more (almost completely withered)). For the same molecule, the “R: persian speedwell, herbicidal effect grade” value (persian speedwell) was 5 (Herbicidal rate of 90% or more (almost completely withered)), the “N: redroot pigweed, herbicidal effect grade” value (redroot pigweed [18]) was 0 (Herbicidal rate of 5% or less (almost no effect)) and the “H: barnyard grass, herbicidal effect grade” value (barnyard grass [19]) was 0 (Herbicidal rate of 5% or less (almost no effect)). The “H: barnyard grass, herbicidal effect grade” value (barnyard grass [20]) was 3 (Herbicidal rate of 40% or more and less than 70%), the “N: redroot pigweed, herbicidal effect grade” value (redroot pigweed [21]) was 5 (Herbicidal rate of 90% or more (almost completely withered)) and the “O: lambsquarters, herbicidal effect grade” value (lambsquarters [22]) was 4 (Herbicidal rate of 70% or more and less than 90%). The “G: green foxtail, herbicidal effect grade” value (green foxtail [23]) was 0 (Herbicidal rate of 5% or less (almost no effect)) and the “herbicidal effect on rice flat sedge (E)” value (rice flat sedge) was 5 (Herbicidal rate of 90% or more (almost completely withered)).
